Source: patent publication US12281102B2, “Inhibitors of APOL1 and methods of using same” (Vertex Pharmaceuticals Incorporated, priority 2020, dated 2025)

Target: T1, G1 APOL1 (Homo sapiens, UniProt O14791, I384M/S342G)
T1 construct: expressed in transfected cells
T1 sequence (O14791 28-398 S342G/I384M): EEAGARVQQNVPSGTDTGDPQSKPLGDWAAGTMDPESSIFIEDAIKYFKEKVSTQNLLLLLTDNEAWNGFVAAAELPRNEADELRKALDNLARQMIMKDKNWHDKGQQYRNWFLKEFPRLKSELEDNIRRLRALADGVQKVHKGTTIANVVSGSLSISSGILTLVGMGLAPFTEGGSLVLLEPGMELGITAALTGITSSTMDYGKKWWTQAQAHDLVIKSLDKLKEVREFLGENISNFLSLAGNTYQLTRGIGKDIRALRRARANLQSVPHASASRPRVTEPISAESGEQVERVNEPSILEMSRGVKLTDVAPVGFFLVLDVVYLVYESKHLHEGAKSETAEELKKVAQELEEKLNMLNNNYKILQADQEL
Test: Acute APOL1 Thallium Assay with inducible stable clones of HEK 293 cells
Type: cell-based
Details: HEK 293 T-Rex inducible stable clone expressing G1 APOL1; read-out: Thallium Assay (IC50)
Procedure, shortened: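 A tetracycline-inducible HEK293 T-Rex clone (G1 DC3.25) expressing G1 APOL1 was plated at 26,000 cells/well, with tetracycline added at plating to induce expression. Cells were loaded with an AM-ester thallium-sensitive dye and stimulated with Tl+. Pore activity was read as the FLIPR Tetra fluorescence increase from Tl+ influx.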

**Q.** With `C[C@@H](N)C(=O)NC[C@H]1C[C@H](c2c(-c3ccc(F)cc3)[nH]c3c(F)cc(F)cc32)C1` [Compound 236] as the molecule, how does the IC50 read?
**A.** > 1 µM

**Q.** With `O=C1C[C@H](C(=O)NC[C@H]2C[C@H](c3c(-c4ccc(F)cc4)[nH]c4c(F)cc(F)cc43)C2)N1` [Compound 237] as the molecule, how does the IC50 read?
**A.** > 1 µM

**Q.** `O=C(Cc1cnccn1)NC[C@H]1C[C@H](c2c(-c3ccc(F)cc3)[nH]c3c(F)cc(F)cc32)C1` [Compound 238] was tested. Which IC50 did it give?
**A.** > 1 µM

**Q.** `CN1CCC(CC(=O)NC[C@H]2C[C@@H](c3c(-c4ccc(F)cc4)[nH]c4c(F)cc(F)cc43)C2)CC1` [Compound 239] was tested. Which IC50 did it give?
**A.** > 1 µM

**Q.** `CO[C@H](C)C(=O)NC[C@H]1C[C@H](c2c(-c3ccc(F)cc3)[nH]c3c(F)cc(F)cc32)C1` [Compound 240] was tested. Which IC50 did it give?
**A.** > 1 µM

**Q.** How did the IC50 turn out when `O=C1C[C@@H](C(=O)NC[C@H]2C[C@@H](c3c(-c4ccc(F)cc4)[nH]c4c(F)cc(F)cc43)C2)N1` [Compound 241] was run?
**A.** > 1 µM

**Q.** With `NC(=O)CC(=O)NC[C@H]1C[C@@H](c2c(-c3ccc(F)cc3)[nH]c3c(F)cc(F)cc32)C1` [Compound 243] as the molecule, how does the IC50 read?
**A.** > 1 µM

**Q.** How did the IC50 turn out when `NC1(C(=O)NC[C@H]2C[C@H](c3c(-c4ccc(F)cc4)[nH]c4c(F)cc(F)cc43)C2)CCC1` [Compound 244] was run?
**A.** > 1 µM

**Q.** How did the IC50 turn out when `O=C(NC[C@H]1C[C@H](c2c(-c3ccc(F)cc3)[nH]c3c(F)cc(F)cc32)C1)[C@H]1CCN1` [Compound 245] was run?
**A.** > 1 µM

**Q.** For `O=C(NC[C@H]1C[C@H](c2c(-c3ccc(F)cc3)[nH]c3c(F)cc(F)cc32)C1)[C@@H]1C[C@H](F)CN1` [Compound 246], which IC50 is on record?
**A.** > 1 µM

**Q.** For `O=C(NC[C@H]1C[C@@H](c2c(-c3ccc(F)cc3)[nH]c3c(F)cc(F)cc32)C1)C(O)C1CC1` (some centres unmarked) [Compound 247], which IC50 is on record?
**A.** > 1 µM

**Q.** With `O=C(Cc1ncccn1)NC[C@H]1C[C@H](c2c(-c3ccc(F)cc3)[nH]c3c(F)cc(F)cc32)C1` [Compound 248] as the molecule, how does the IC50 read?
**A.** > 1 µM

**Q.** How did the IC50 turn out when `O=C1CC[C@H](C(=O)NC[C@H]2C[C@@H](c3c(-c4ccc(F)cc4)[nH]c4c(F)cc(F)cc43)C2)N1` [Compound 249] was run?
**A.** > 1 µM

**Q.** Which IC50 does the source give for `CC(=O)NCC(=O)NC[C@H]1C[C@H](c2c(-c3ccc(F)cc3)[nH]c3c(F)cc(F)cc32)C1` [Compound 250] here?
**A.** > 1 µM

**Q.** For `O=C(Cc1ccncn1)NC[C@H]1C[C@H](c2c(-c3ccc(F)cc3)[nH]c3c(F)cc(F)cc32)C1` [Compound 251], which IC50 is on record?
**A.** > 1 µM

**Q.** `CC(C)(C)OC(=O)N1C[C@@H](O)C[C@H]1C(=O)NC[C@H]1C[C@H](c2c(-c3ccc(F)cc3)[nH]c3c(F)cc(F)cc32)C1` [Compound 252] was tested. Which IC50 did it give?
**A.** > 1 µM

**Q.** How did the IC50 turn out when `O=C1CCC[C@@H](C(=O)NC[C@H]2C[C@H](c3c(-c4ccc(F)cc4)[nH]c4c(F)cc(F)cc43)C2)N1` [Compound 253] was run?
**A.** > 1 µM

**Q.** How did the IC50 turn out when `O=C(NC[C@H]1C[C@H](c2c(-c3ccc(F)cc3)[nH]c3c(F)cc(F)cc32)C1)[C@@H]1C[C@H](O)CN1` [Compound 254] was run?
**A.** > 1 µM

**Q.** For `CC(C)(C)OC(=O)N1CC[C@H](O)[C@H]1C(=O)NC[C@H]1C[C@H](c2c(-c3ccc(F)cc3)[nH]c3c(F)cc(F)cc32)C1` [Compound 255], which IC50 is on record?
**A.** > 1 µM

**Q.** For `CC(=O)N1CC[C@@H](C(=O)NC[C@H]2C[C@H](c3c(-c4ccc(F)cc4)[nH]c4c(F)cc(F)cc43)C2)C1` [Compound 256], which IC50 is on record?
**A.** > 1 µM

**Q.** `O=C(NC[C@H]1C[C@H](c2c(-c3ccc(F)cc3)[nH]c3c(F)cc(F)cc32)C1)[C@H]1COCCN1` [Compound 257] was tested. Which IC50 did it give?
**A.** > 1 µM

**Q.** For `CC[C@H](NC(=O)OC(C)(C)C)C(=O)NC[C@H]1C[C@H](c2c(-c3ccc(F)cc3)[nH]c3c(F)cc(F)cc32)C1` [Compound 258], which IC50 is on record?
**A.** > 1 µM

**Q.** Which IC50 does the source give for `CN1CCC(CC(=O)NC[C@H]2C[C@@H](c3c(-c4ccc(F)cc4)[nH]c4c(F)cc(F)cc43)C2)C1` (some centres unmarked) [Compound 260] here?
**A.** > 1 µM

**Q.** `O=C(CC1CS(=O)(=O)C1)NC[C@H]1C[C@H](c2c(-c3ccc(F)cc3)[nH]c3c(F)cc(F)cc32)C1` [Compound 261] was tested. Which IC50 did it give?
**A.** > 1 µM

**Q.** How did the IC50 turn out when `CS(=O)(=O)CCC(=O)NC[C@H]1C[C@@H](c2c(-c3ccc(F)cc3)[nH]c3c(F)cc(F)cc32)C1` [Compound 262] was run?
**A.** > 1 µM

**Q.** For `CCS(=O)(=O)NCC(=O)NC[C@H]1C[C@@H](c2c(-c3ccc(F)cc3)[nH]c3c(F)cc(F)cc32)C1` [Compound 263], which IC50 is on record?
**A.** > 1 µM

**Q.** For `N[C@@H](C(=O)NC[C@H]1C[C@H](c2c(-c3ccc(F)cc3)[nH]c3c(F)cc(F)cc32)C1)C1CC1` [Compound 264], which IC50 is on record?
**A.** > 1 µM

**Q.** `O=C(NC[C@H]1C[C@H](c2c(-c3ccc(F)cc3)[nH]c3c(F)cc(F)cc32)C1)c1ncccn1` [Compound 265] was tested. Which IC50 did it give?
**A.** > 1 µM

**Q.** `CC(F)(F)C(=O)NC[C@H]1C[C@@H](c2c(-c3ccc(F)cc3)[nH]c3c(F)cc(F)cc32)C1` [Compound 266] was tested. Which IC50 did it give?
**A.** > 1 µM

**Q.** For `CC[C@@H](N)C(=O)NC[C@H]1C[C@H](c2c(-c3ccc(F)cc3)[nH]c3c(F)cc(F)cc32)C1` [Compound 267], which IC50 is on record?
**A.** > 1 µM

**Q.** Which IC50 does the source give for `O=C1CC[C@H](C(=O)NC[C@H]2C[C@H](c3c(-c4ccc(F)cc4)[nH]c4c(F)cc(F)cc43)C2)N1` [Compound 268] here?
**A.** > 1 µM

**Q.** How did the IC50 turn out when `O=C1NCC(C(=O)NC[C@H]2C[C@H](c3c(-c4ccc(F)cc4)[nH]c4c(F)cc(F)cc43)C2)O1` (some centres unmarked) [Compound 269] was run?
**A.** > 1 µM

**Q.** With `CO[C@@H](C)C(=O)NC[C@H]1C[C@H](c2c(-c3ccc(F)cc3)[nH]c3c(F)cc(F)cc32)C1` [Compound 270] as the molecule, how does the IC50 read?
**A.** > 1 µM

**Q.** For `CS(=O)(=O)NCC(=O)NC[C@H]1C[C@@H](c2c(-c3ccc(F)cc3)[nH]c3c(F)cc(F)cc32)C1` [Compound 271], which IC50 is on record?
**A.** > 1 µM

**Q.** Which IC50 does the source give for `O=C(CN1CCOCC1)NC[C@H]1C[C@@H](c2c(-c3ccc(F)cc3)[nH]c3c(F)cc(F)cc32)C1` [Compound 272] here?
**A.** > 1 µM

**Q.** For `O=C1CC(C(=O)NC[C@H]2C[C@H](c3c(-c4ccc(F)cc4)[nH]c4c(F)cc(F)cc43)C2)CN1` (some centres unmarked) [Compound 273], which IC50 is on record?
**A.** > 1 µM

**Q.** For `CC(=O)N1CC[C@H](C(=O)NC[C@H]2C[C@H](c3c(-c4ccc(F)cc4)[nH]c4c(F)cc(F)cc43)C2)C1` [Compound 274], which IC50 is on record?
**A.** > 1 µM

**Q.** With `O=C(NC[C@H]1C[C@H](c2c(-c3ccc(F)cc3)[nH]c3c(F)cc(F)cc32)C1)[C@H]1C[C@@H](O)CN1` [Compound 275] as the molecule, how does the IC50 read?
**A.** > 1 µM

**Q.** With `O=C(NC[C@H]1C[C@H](c2c(-c3ccc(F)cc3)[nH]c3c(F)cc(F)cc32)C1)[C@@H]1COCCN1` [Compound 276] as the molecule, how does the IC50 read?
**A.** > 1 µM

**Q.** With `CC(C)(C)OC(=O)N[C@@H](C(=O)NC[C@H]1C[C@H](c2c(-c3ccc(F)cc3)[nH]c3c(F)cc(F)cc32)C1)C1CC1` [Compound 277] as the molecule, how does the IC50 read?
**A.** > 1 µM

**Q.** Which IC50 does the source give for `Cn1ccc(CC(=O)NC[C@H]2C[C@@H](c3c(-c4ccc(F)cc4)[nH]c4c(F)cc(F)cc43)C2)n1` [Compound 278] here?
**A.** > 1 µM

**Q.** For `NS(=O)(=O)CCCC(=O)NC[C@H]1C[C@@H](c2c(-c3ccc(F)cc3)[nH]c3c(F)cc(F)cc32)C1` [Compound 280], which IC50 is on record?
**A.** > 1 µM

**Q.** For `O=C(NC[C@H]1C[C@H](c2c(-c3ccc(F)cc3)[nH]c3c(F)cc(F)cc32)C1)[C@H]1CCCN1` [Compound 282], which IC50 is on record?
**A.** > 1 µM

**Q.** Which IC50 does the source give for `O=C(NC[C@H]1C[C@H](c2c(-c3ccc(F)cc3)[nH]c3c(F)cc(F)cc32)C1)C1(O)CC1` [Compound 283] here?
**A.** > 1 µM

**Q.** For `CC1(C(=O)NC[C@H]2C[C@@H](c3c(-c4ccc(F)cc4)[nH]c4c(F)cc(F)cc43)C2)CC(=O)C1` [Compound 284], which IC50 is on record?
**A.** > 1 µM

**Q.** With `O=C(CC1CC(=O)NC(=O)C1)NC[C@H]1C[C@@H](c2c(-c3ccc(F)cc3)[nH]c3c(F)cc(F)cc32)C1` [Compound 285] as the molecule, how does the IC50 read?
**A.** > 1 µM

Same assay, conditions: Thallium Assay (IC50), HEK 293 T-Rex inducible stable clone expressing G1 APOL1

**Q.** How did the IC50 turn out when `CC(C)(C)OC(=O)N1CCC[C@@H]1C(=O)NC[C@H]1C[C@H](c2c(-c3ccc(F)cc3)[nH]c3c(F)cc(F)cc32)C1` [Compound 279] was run?
**A.** > 1 µM
